We go through five compounds from patent publication US20140364454A1, “METAL-CHELATING COMPOUNDS HAVING AT LEAST ONE POLYAMINO CHAIN” (UNIVERSITE DE RENNES I, priority 2011, published 2014).

The structures appear in SMILES notation. Like-named read-outs stand apart in the source and are kept apart here.

For data set [1] the following is noted: pH 7.4; stated reference values; cited from earlier work.
Data set [2] relates to Caco-2 cells. As to the kind of experiment: Cell viability of proliferating Caco-2 cells (number of nuclei). It counts as cell-based, human. As to conditions: for Constituent 2 (10-100 μM) % cell / Constituent 1 (1-10 μM) % cell: Caco-2 J4, no exogenous iron. Here is the method: (§1) The action of Quilamines on the cell viability was analyzed on enterocyte cells of the Caco-2 tumor cell line derived from human colon carcinoma and compared with the action of ICL670 in the presence or absence of exogenous iron, after activation (DFMO) or competitive inhibition by spermidine, of the PTS. The operating conditions used are identical to those used for CHO/CHO-MG and HepG2 cells.
The results for the measurement of the anti-proliferative effect of Quilamines, and of ICL670 on the proliferating cells (cytostatic constituent) when there is no exogenous iron have been listed in the table 4 below.

Data set [3] deals with wild cell line (CHO) of hamster ovarian cells. As to the kind of experiment: Anti-proliferative effect on CHO cells, counting of cell nuclei (Hoechst 33342). In kind it is cell-based. Conditions: read-out: IC50 CHO. Here is the method: (§2) The in vitro efficacy of different Quilamines was tested on a wild cell line (CHO) of hamster ovarian cells having PTS and a mutant cell line CHO-MG without PTS. The two cell types CHO and CHO-MG were treated, 24 hours after being seeded in 96-well microplates, by concentrations of different Quilamines ranging from 0.1 to 400 micromoles per liter. The cytostatic (anti-proliferative) effects and cytotoxic effects of Quilamine after 72 hours' treatment of the cells were assessed respectively by counting cell nuclei after DNA marking by the Hoechst 33342 fluorescent intercalant dye and by analysis of membrane damage detected by the dosing of the lactate dehydrogenase activity (LHD) in the supernatants.
The IC50 inhibitor concentration corresponding to the concentration in Quilamines enables the inhibition at 50% of the cell proliferation was deduced from the dose-effect curves of numeration of the nuclei of the living cells on the CHO and CHO-MG cell lines. […] The lower the value of IC50, the greater the efficiency of the anti-proliferative effect of the tested chelators.
(§3) A comparison was made of the cytostatic or anti-proliferative action and the cytotoxic action for 72 h of treatment by Quilamine HQ1-44 and 8-hydroxyquinoline and ICL670, on the CHO cell lines in the presence and without the presence of exogenous iron, in the form of Fe(III) citrate in a concentration of 20 micromoles per liter. The results obtained are shown in FIG. 4, FIG. 4A relating to the results on cell viability and FIG. 4B relating to the results on cell toxicity.

For data set [4], the system named is mutant cell line CHO-MG without PTS. As to the kind of experiment: Anti-proliferative effect on CHO-MG cells without PTS, counting of cell nuclei. In kind it is cell-based, hamster. Conditions: for IC50: 72 h treatment; for Ratio IC50 (CHO-MG/CHO): selectivity of recognition by the PTS. The source says:
The IC50 inhibitor concentration corresponding to the concentration in Quilamines enables the inhibition at 50% of the cell proliferation was deduced from the dose-effect curves of numeration of the nuclei of the living cells on the CHO and CHO-MG cell lines. These dose-effect curves are sometimes bi-phase curves as in the case of Quilamine HQ1-44 which has an anti-proliferative constituent (without concomitant release of LDH in supernatant) in the range of concentrations of 0.4 to 3 micromoles per liter and a second cytotoxic constituent accompanied by membrane toxicity expressed by the release of LDH for concentrations of over […]. The lower the value of IC50, the greater the efficiency of the anti-proliferative effect of the tested chelators.
Furthermore, the ratio of the IC50 inhibitor concentrations found for the CHO-MG and the CHO cell lines (Ratio IC50 (CHO-MG/CHO)) was computed for several Quilamines according to the invention. This ratio makes it possible to estimate the selectivity of recognition of the different chelators by the PTS: the higher the ratio, the more clearly is the chelator recognized by the PTS. When this ratio is close to 1, the tested chelator is not recognized or is little recognized by the PTS.

Another data set concerns CHO cells. As to the kind of experiment: Cytotoxic effect on CHO cells, LDH release in supernatants. Conditions: CHO. The method, then: as §2, §3
For orientation: LDH in the medium is a marker of cell lysis.

A short description of data set [5]: Potentiometry: stability constants and pFe3+ of the iron complex. As to conditions: pH 7.4. It counts as physicochemical. The method, then: The complexation affinity of Quilamine with the metal ion in the organism reflects the chelating capacity or chelating power of Quilamine. This affinity can be assessed by measuring the value of pW corresponding to −log of the concentration in free metal ion W, i.e. non-complexated by the Quilamine for a ratio of respective concentrations of Quilamine (10 micromoles per liter) and metal ion (1 micromole per liter) equal to 10, at 25° C. and pH 7.4. The higher the value of pW, the greater the affinity of Quilamine with metal ion. The affinity of Quilamine with iron in its ferric form (Fe(III)) and its ferrous form (Fe(II)) is measured respectively by pFe^3+ and pFe^2+ at physiological pH (pH=7.4), at 25° C.
Potentiometry measurements were made in thermostated titration cells at 25±0.1° C., using a Metrohm 702 SM Titrino titrator connected to a Metrohm 6.0233.100. The ligand solution is prepared in a concentration of ˜1.5×10^−3 moles per liter, the solution of Fe^3+ is made from FeCl3 and titrated by complexation with a standard solution of EDTA (ethylenediaminetetracetic acid). The sample for the measurement contained approximately 0.03 millimoles per liter of ligand in a volume of 30 ml where the ionic strength is maintained at 0.1 mole per liter in using KNO3 as a support electrolyte. During the titrations, Fe^3+ is added to 0.45 or 0.9 equivalents of ligand. Each titration consists of 150-200 equilibrium points with pH varying from 2.0 to 11.5, and is repeated at least twice. The thermodynamic constants are computed with the software […] and the speciation diagram of the species is done by the Hyss program.

For data set [6], the system named is Caco-2 cells. The data set can be described thus: LDH release of Caco-2 cells. It counts as cell-based, human. As to conditions: for % LDH/control 10 μM: Caco-2 J4, 10 μM; for % LDH/control 100 μM: Caco-2 J4, 100 μM. The method, then:
as §1
As in the case of the other cell lines in proliferative phase presented here above, the dose-effect curves of the action of the Quilamines on the number of viable cells (number of nuclei) are biphase curves with a cytostatic constituent for concentration values of below 30 micromoles per liter and a cytotoxic constituent with release of LDH for concentration values above 30 micromoles per liter. Only this second cytotoxic constituent is observed when the cells of the Caco-2 cell line are treated after confluence (stopping of the proliferation).

The next data set has as its system HepG2 cells. The data set can be described thus: Anti-proliferative effect on HepG2 cells (nuclei count or SDH activity). In kind it is cell-based, human. Conditions: 72 h; for IC50: HepG2, absence of exogenous iron, read-out: IC50 associated with the cytostatic effect; for % of HepG2 cells concerned by the anti-proliferative effect: absence of exogenous iron. From the text: The majority of the Quilamines, like ICL670, show biphase dose-effect curves in the absence of exogenous iron, with an anti-proliferative constituent for concentration values of 1 to 10 micromoles per liter and a cytotoxic constituent associated with a release of LDH for concentration values of over 10 micromoles per liter. The percentage of HepG2 cells concerned by the anti-proliferative effect and the values of IC50 associated with this cytostatic effect in the absence of exogenous iron were listed in the table 4 below.
The implication of PTS in the cytostatic and cytotoxic action of Quilamines was analyzed in proliferating HepG2 hepatocyte tumor cells after activation of PTS or competitive inhibition of PTS by spermidine, a polyamine naturally present in the organism and most efficaciously captured by the PTS. The conditions of treatment by Quilamines are identical to those described in paragraph III-1.
Inhibiting ornithine decarboxylase (ODC), the key enzyme in the biosynthesis of polyamines, causes a depletion of intra-cell polyamines and an activation of PTS which enables the deficiency to be met. This activation of PTS is done by means of the ODC inhibitor, alpha-difluoromethyl ornithine (DFMO).
The competitive inhibition of PTS by spermidine is prompted by the co-treatment of the cells by the Quilamines in the presence of spermidine, in a concentration of 50 micromoles per liter.

Data set [7] in a line: Calcein test: shift of iron(III) complexated with calcein. In kind it is physicochemical. As to conditions: pH 7.4. The method, then:
The Quilamines HQ1-34, HQ1-344, HQ1-343, HQ1-33, HQ1-333, HQ1-44, HQ1-43, HQ1-444, HQ1-443 according to the invention were synthesized and tested. For each Quilamine, its capacity to shift iron (III) complexated with calcein was tested. Calcein is a fluorescent molecule which has a pFe3+ value of 20.3 with pH 7.4 close to the value measured for ligands of low molecular weight present in human or animal cells and complexating the labile iron pool, such as citrate which has a pFe^3+ value of 19.3 with pH of 7.4 (LIP). The fluorescence of calcein is detected on a microplate, in a concentration of 0.1 micromole per liter, in solution in a HEPES buffer (4-(2-hydroxyethyl)-1-piperazine ethane sulfonic acid) with pH 7.4, in a Fusion (Packard) type a microplate fluorescence reader, under excitation at 450 nanometers and analysis of the fluorescence emission at 515 nanometers. The fluorescence of calcein is extinguished in the presence of iron(III) in the form of hydrochloride (chloride) with a concentration of 1 micromole per liter. The addition of Quilamine in different concentrations ranging from 0.01 to 40 micromoles per liter prompts the shifting of iron(III) complexated with calcein towards Quilamine, resulting in a restoration of the fluorescence of the calcein. The dose-effect curves expressing the percentage of restoration of fluorescence of calcein (relative to the fluorescence of the free molecule in the absence of iron), for each Quilamine concentration, makes it possible to deduce the Quilamine concentration prompting the 50% shift of Fe(III) from calcein and the restoration of its associated fluorescence (CE50). These concentration values CE50 are inversely proportional to the chelating capacity of the chelators and the aptitude to mobilize iron from the LIP of the organism.
Comparatively, measurements were made, under the same conditions, of the efficacy in shifting iron(III) complexated with calcein of the two prior-art chelators, 8-hydroxyquinoline and O-trensox, the latter being currently considered to be the chelator having the greatest affinity for iron.

Setting [8] is: Caco-2 J4, cytostatic constituent, no exogenous iron, read-out: Constituent 1 (1-10 μM) IC50.
Where [9] appears, read: Caco-2 J4, cytotoxic constituent, no exogenous iron, read-out: Constituent 2 (10-100 μM) IC50.
The mark [10] stands for this setting: 72 h treatment, no exogenous iron.

With `O=C(O)CC(O)(CC(=O)O)C(=O)O` [citrate], the “pFe3+” value in data set [1] is 19.3.
Consider `Oc1cccc2cccnc12` [8-hydroxyquinoline, reference compound], for which the “Constituent 2 (10-100 μM) % cell” value in the data set with Caco-2 cells [2] stood at 100%. Besides, the IC50 (usually the concentration that gives 50% inhibition) in the data set with Caco-2 cells [2] (Homo sapiens, Caco-2, read-out: Constituent 2 (10-100 μM) IC50) was determined as 5 µM; in data set [3] (CHO, 72 h) it was 5 µM; in data set [4] (CHO-MG), 10.5 µM. Further, the “Ratio IC50 (CHO-MG/CHO)” value in [4] stood at 2. In addition, the “influence of exogenous iron on the cytotoxic effect” value with CHO cells (Fe(III) citrate 20 micromoles per liter) is recorded as “no modification”. Moreover, the “chelator concentration giving cytotoxic effect with release of LDH” value with CHO cells (absence of exogenous iron) is recorded as “greater than or equal to 5 micromoles per liter”. Besides, the “pFe3+” value in data set [5] was determined as 20.6. In addition, the “% LDH/control 10 μM” value in the data set on Caco-2 cells [6] is on record as 281%. Moreover, the “% LDH/control 100 μM” value with Caco-2 cells [6] was 353%.
On to `NCCCNCCCNCCCNCc1ccc2cccc(O)c2n1` [HQ1-333], for which the IC50 in the data set with Caco-2 cells [2] (setting [8]) was determined as 3 µM; in the data set with Caco-2 cells [2] (setting [9]), 60 µM; with HepG2 cells, 1 µM; in [3] (setting [10]), 15.1 µM; in data set [4], 277 µM. Further, in the data set with Caco-2 cells [2], the “Constituent 1 (1-10 μM) % cell” value came out at 20%. The “Constituent 2 (10-100 μM) % cell” value in the data set with Caco-2 cells [2] came to 80%. In addition, the “% of HepG2 cells concerned by the anti-proliferative effect” value with HepG2 cells came out at 12.5%. Besides, the “Ratio IC50 (CHO-MG/CHO)” value in [4] came to 18. In addition, the “% LDH/control 10 μM” value in the data set on Caco-2 cells [6] was found to be 112%. For the same compound, the “% LDH/control 100 μM” value in the data set on Caco-2 cells [6] was found to be 169%. Also, the “chelating capacity of HQ1-3 type compared with HQ1-4 type Quilamines” value in [7] is reported as “better chelating capacity”.
In the case of `O=C(O)CN(CC(=O)O)Cc1cc2c(cc1O)Oc1cc(O)c(CN(CC(=O)O)CC(=O)O)cc1C21OC(=O)c2ccccc21` [Calcein, reference compound], the “pFe3+” value in data set [1] is 20.3.
For `NCCCNCCCNCc1ccc2cccc(O)c2n1` [HQ1-33], the IC50 with Caco-2 cells [2] (setting [8]) amounted to 0.8 µM; in the data set with Caco-2 cells [2] (setting [9]), 37 µM; in the data set on HepG2 cells, 1.5 µM; in [3] (setting [10]), 5.7 µM; in data set [4] it was 118 µM. The “Constituent 1 (1-10 μM) % cell” value with Caco-2 cells [2] came to 40%. The “Constituent 2 (10-100 μM) % cell” value in the data set with Caco-2 cells [2] amounted to 60%. The “% of HepG2 cells concerned by the anti-proliferative effect” value in the data set with HepG2 cells turned out to be 10%. For the same compound, the “Ratio IC50 (CHO-MG/CHO)” value in [4] was 21. Moreover, in the data set on Caco-2 cells [6], the “% LDH/control 10 μM” value stood at 118%. For the same compound, the “% LDH/control 100 μM” value in the data set with Caco-2 cells [6] was 261%. Moreover, the “chelating capacity of HQ1-3 type compared with HQ1-4 type Quilamines” value in [7] is reported as “better chelating capacity”.
